# Legend:
# [1] = target: T1, MGL (Rattus norvegicus, UniProt Q8R431); test: 2-AG Accumulation Assay in rat brain homogenate; format: biochemical; settings: percent of vehicle; for activity at 1 µM: compound @1 µM, read-out: Rat Brain 2AG % VehCntrl (%) @1 µM; for activity at 10 µM: compound @10 µM, read-out: Rat Brain 2AG % VehCntrl (%) @10 µM
# T1 construct: one g rat brain was homogenized using a Polytron homogenizer; from tissue; host or cells: rat brain homogenate
# T1 sequence (Q8R431 1-303): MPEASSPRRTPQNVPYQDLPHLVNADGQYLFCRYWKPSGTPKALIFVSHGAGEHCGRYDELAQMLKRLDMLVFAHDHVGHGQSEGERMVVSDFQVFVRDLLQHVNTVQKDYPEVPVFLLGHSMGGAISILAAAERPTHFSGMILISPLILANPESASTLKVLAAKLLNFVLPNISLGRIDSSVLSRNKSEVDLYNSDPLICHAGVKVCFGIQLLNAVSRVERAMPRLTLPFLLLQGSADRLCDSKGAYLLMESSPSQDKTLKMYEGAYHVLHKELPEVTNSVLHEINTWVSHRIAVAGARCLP
# [2] = target: T2, mutant MGL (mut-MGLL 11-313 L179S L186S) (Homo sapiens, UniProt Q99685, L169S/L176S); test: MGL Enzyme Activity Assay, purified mutant MGL, 4MU-B substrate; format: biochemical; settings: mutant MGL 5 nM, 4MU-B 10 μM, 37° C.; read-out: MGL mutant inh IC50
# T2 construct: purified mutant MGL (mut-MGLL 11-313 L179S L186S)
# T2 sequence (Q99685 1-303 L169S/L176S): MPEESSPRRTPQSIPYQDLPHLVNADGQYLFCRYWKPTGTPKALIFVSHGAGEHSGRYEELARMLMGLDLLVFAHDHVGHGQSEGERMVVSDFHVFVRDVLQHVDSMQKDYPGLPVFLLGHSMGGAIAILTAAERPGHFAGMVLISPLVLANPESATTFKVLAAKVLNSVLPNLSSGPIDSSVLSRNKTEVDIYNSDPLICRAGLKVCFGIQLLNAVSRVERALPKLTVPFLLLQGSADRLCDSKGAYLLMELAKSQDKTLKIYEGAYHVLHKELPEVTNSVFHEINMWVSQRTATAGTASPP
# Description: All rate-based assays were performed in black 384-well polypropylene PCR microplates (Abgene) in a total volume of 30 μL. Substrate 4-methylumbelliferyl butyrate (4MU-B; Sigma) and either purified mutant MGL (mut-MGLL 11-313 L179S L186S) or purified wild type MGL (wt-MGLL 6H-11-313) were diluted separately into 20 mM PIPES buffer (pH=7.0), containing 150 mM NaCl and 0.001% Tween 20. Compounds of Formula (I), including Formulas I(a), I(b), and I(c), were pre-dispensed (50 nL) into the assay plate using a Cartesian Hummingbird prior to adding 4MU-B (25 μL of 1.2× solution to a final concentration of 10 μM) followed by enzyme (5 μL of a 6× solution to a final concentration of 5 nM) to initiate the reaction. Final compound concentrations ranged from 17 to 0.0003 μM. The fluorescence change due to 4MU-B cleavage was monitored with excitation and emission wavelengths of 335 and 440 nm, respectively, and a bandwidth of 10 nm (Safire^2, Tecan) at 37° C. for 5 min.
# The IC50 values for the following compounds were determined using Microsoft Office Excel from a fit of the equation to the concentration-response plot of the fractional activity as a function of inhibitor concentration.
# [3] = target: T3, mutant MGL (Homo sapiens, UniProt Q99685, L169S/L176S); test: MGL ThermoFluor Assay - Mutant; format: binding; settings: 0.07 mg/ml mutant MGL, 100 μM ANS, pH 7.0
# T3 construct: purified mutant MGL (mut-MGLL 11-313 L179S L186S)
# T3 sequence (Q99685 1-303 L169S/L176S): T2 sequence (Q99685 1-303 L169S/L176S)
# Description: The ThermoFluor (TF) assay is a 384-well plate-based binding assay that measures thermal stability of proteins^1,2. The experiments were carried out using instruments available from Johnson & Johnson Pharmaceutical Research & Development, LLC. TF dye used in all experiments was 1,8-ANS (Invitrogen: A-47). Final TF assay conditions used for MGL studies were 0.07 mg/ml of mutant MGL, 100 μM ANS, 200 mM NaCl, 0.001% Tween-20 in 50 mM PIPES (pH=7.0).
# Screening compound plates contained 100% DMSO compound solutions at a single concentration. […] Columns 12 and 24 were used as DMSO reference and contained no compound. […] Following compound dispension, protein and dye solutions were added to achieve the final assay volume of 3 μL.
# Bar-coded assay plates were robotically loaded onto a thermostatically controlled PCR-type thermal block and then heated from 40 to 90° C. degrees at a ramp-rate of 1° C./min for all experiments. Fluorescence was measured by continuous illumination with UV light (Hamamatsu LC6), supplied via fiber optics and filtered through a band-pass filter (380-400 nm; >60D cutoff). Fluorescence emission of the entire 384-well plate was detected by measuring light intensity using a CCD camera (Sensys, Roper Scientific) filtered to detect 500±25 nm, resulting in simultaneous and independent readings of all 384 wells. A single image with 20-sec exposure time was collected at each temperature, and the sum of the pixel intensity in a given area of the assay plate was recorded vs temperature and fit to standard equations to yield the Tm^1. • 1.
# The Kd values for certain compounds of Formula (I) were determined from a fit of the equation to the concentration-response plot of the fractional activity as a function of […]. For some experiments, quantitative NMR spectroscopy (qNMR) was used to measure concentration of the initial 100% DMSO compound solutions and, using the same fitting method, qKd values were determined.
Compound,activity at 1 µM [1],IC50 [2],Kd [3],activity at 10 µM [1]
"O=C(NC1CN(C2CN(C(=O)c3ccc4c(ccn4S(=O)(=O)c4ccccc4)c3)C2)C1)c1nccs1 [Cpd 3, N-(1′-{[1-(Phenylsulfonyl)-1H-indol-5-yl]carbonyl}-1,3′-biazetidin-3-yl)-1,3-thiazole-2-carboxamide]",271%,0.006 µM,0.0333 µM,
"O=C(NC1CN(C2CN(C(=O)c3cc4c(C(F)(F)F)cccc4s3)C2)C1)c1nccs1 [Cpd 8, N-(1′-{[4-(Trifluoromethyl)-1-benzothiophen-2-yl]carbonyl}-1,3′-biazetidin-3-yl)-1,3-thiazole-2-carboxamide]",127%,0.012 µM,0.128 µM,
"O=C(NC1CN(C2CN(C(=O)c3ccc4c(ccn4-c4ccc(F)cc4)c3)C2)C1)c1cscn1 [Cpd 11, N-(1′-{[1-(4-Fluorophenyl)-1H-indol-5-yl]carbonyl}-1,3′-biazetidin-3-yl)-1,3-thiazole-4-carboxamide]",,0.015 µM,0.044 µM,220%
"CS(=O)(=O)c1cccc(-c2ccc(C(=O)N3CC(N4CC(NC(=O)c5nccs5)C4)C3)cc2)c1 [Cpd 18, N-(1′-{[3′-(Methylsulfonyl)biphenyl-4-yl]carbonyl}-1,3′-biazetidin-3-yl)-1,3-thiazole-2-carboxamide]",218%,0.059 µM,0.215 µM,
"O=C(NC1CN(C2CN(C(=O)c3nc4cc(C(F)(F)F)ccc4s3)C2)C1)c1nccs1 [Cpd 47, N-(1′-{[5-(Trifluoromethyl)-1,3-benzothiazol-2-yl]carbonyl}-1,3′-biazetidin-3-yl)-1,3-thiazole-2-carboxamide]",,4.75 µM,2.5 µM,
"O=C(c1ccc2c(ccn2S(=O)(=O)c2ccccc2)c1)N1CC(N2CC(N3Cc4ccccc4C3=O)C2)C1 [Cpd 71, 2-(1′-{[1-(Phenylsulfonyl)-1H-indol-5-yl]carbonyl}-1,3′-biazetidin-3-yl)-2,3-dihydro-1H-isoindol-1-one]",,0.008 µM,0.05 µM,400%
"O=C(c1sc2cc(Br)ccc2c1Cl)N1CC(N2CC(N3Cc4ccccc4C3=O)C2)C1 [Cpd 75, 2-{1′-[(6-Bromo-3-chloro-1-benzothiophen-2-yl)carbonyl]-1,3′-biazetidin-3-yl}-2,3-dihydro-1H-isoindol-1-one]",,0.015 µM,0.007 µM,
"O=C(c1ccc2nc(-c3cccc(C(F)(F)F)c3)oc2c1)N1CC(N2CC(N3Cc4ccccc4C3=O)C2)C1 [Cpd 78, 2-[1′-({2-[3-(Trifluoromethyl)phenyl]-1,3-benzoxazol-6-yl}carbonyl)-1,3′-biazetidin-3-yl]-2,3-dihydro-1H-isoindol-1-one]",,0.017 µM,0.04 µM,
"CS(=O)(=O)c1cccc(-c2ccc(C(=O)N3CC(N4CC(N5Cc6ccccc6C5=O)C4)C3)cc2)c1 [Cpd 80, 2-(1′-{[3′-(Methylsulfonyl)biphenyl-4-yl]carbonyl}-1,3′-biazetidin-3-yl)-2,3-dihydro-1H-isoindol-1-one]",166%,0.019 µM,0.192 µM,
"O=C(c1cc2ccc(C(F)(F)F)cc2s1)N1CC(N2CC(N3Cc4ccccc4C3=O)C2)C1 [Cpd 81, 2-(1′-{[6-(Trifluoromethyl)-1-benzothiophen-2-yl]carbonyl}-1,3′-biazetidin-3-yl)-2,3-dihydro-1H-isoindol-1-one]",192%,0.019 µM,0.016 µM,409%
"O=C(c1ccc2nc(-c3ccccc3)oc2c1)N1CC(N2CC(N3Cc4ccccc4C3=O)C2)C1 [Cpd 84, 2-{1′-[(2-Phenyl-1,3-benzoxazol-6-yl)carbonyl]-1,3′-biazetidin-3-yl}-2,3-dihydro-1H-isoindol-1-one]",152%,0.031 µM,0.06 µM,435%

# More lines, now with the values ahead:
activity at 1 µM [1],IC50 [2],Kd [3],activity at 10 µM [1],Compound
,0.036 µM,0.025 µM,693%,"O=C(c1ccc2c(ccn2-c2ccccc2)c1)N1CC(N2CC(N3Cc4ccccc4C3=O)C2)C1 [Cpd 85, 2-{1′-[(1-Phenyl-1H-indol-5-yl)carbonyl]-1,3′-biazetidin-3-yl}-2,3-dihydro-1H-isoindol-1-one]"
,0.05 µM,0.04 µM,250%,"O=C(c1cc2ccc(Br)cc2s1)N1CC(N2CC(N3Cc4ccccc4C3=O)C2)C1 [Cpd 87, 2-{1′-[(6-Bromo-1-benzothiophen-2-yl)carbonyl]-1,3′-biazetidin-3-yl}-2,3-dihydro-1H-isoindol-1-one]"
,0.242 µM,0.1 µM,,"O=C(c1ccc(-c2ccccc2)cc1)N1CC(N2CC(N3Cc4ccccc4C3=O)C2)C1 [Cpd 92, 2-[1′-(Biphenyl-4-ylcarbonyl)-1,3′-biazetidin-3-yl]-2,3-dihydro-1H-isoindol-1-one]"
,0.36 µM,0.0769 µM,,"O=C(c1cc2cc(Br)ccc2s1)N1CC(N2CC(N3Cc4ccccc4C3=O)C2)C1 [Cpd 93, 2-{1′-[(5-Bromo-1-benzothiophen-2-yl)carbonyl]-1,3′-biazetidin-3-yl}-2,3-dihydro-1H-isoindol-1-one]"
,0.412 µM,0.091 µM,,"O=C(c1ccc(Cc2ccccc2)cc1)N1CC(N2CC(N3Cc4ccccc4C3=O)C2)C1 [Cpd 94, 2-{1′-[(4-Benzylphenyl)carbonyl]-1,3′-biazetidin-3-yl}-2,3-dihydro-1H-isoindol-1-one]"
208%,< 0.005 µM,0.047 µM,,"O=C(c1sc2cc(F)ccc2c1Cl)N1CC(N2CC(N3Cc4ccccc4C3=O)C2)C1 [Cpd 100, 2-{1′-[(3-Chloro-6-fluoro-1-benzothiophen-2-yl)carbonyl]-1,3′-biazetidin-3-yl}-2,3-dihydro-1H-isoindol-1-one]"

# Source: patent US8759333B2, “Di-azetidinyl diamide as monoacylglycerol lipase inhibitors” (Janssen Pharmaceutica, NV, priority 2010, dated 2014)
